From paper PMC6271277, “^68Ga-Labeled Cyclic NGR Peptide for MicroPET Imaging of CD13 Receptor Expression” (Molecules, 2014) come the findings set out here.

The target of one data set is T1, CD13 receptor (Homo sapiens, UniProt P15144).
T1 construct: endogenous in cells; host or cells: HT-1080 human fibrosarcoma cells
The data set can be described thus: Cell-based competitive binding assay against ^125I-NGR. Particulars: HT-1080 cells, competitor 10^-12 to 10^-5 M, gamma counter, n = 3; read-out: IC50, inhibition of ^125I-NGR binding to CD13 receptor. How it is done: In vitro CD13 binding affinity and specificity of NOTA-G3-NGR were tested by a cell-based competitive assay. The binding of ^125I-NGR to CD13 receptors in HT-1080 cells can be inhibited by NOTA-G3-NGR in a dose-dependent manner (Figure 1b).
In vitro CD13 receptor binding affinity and specificity of NOTA-G3-NGR in HT-1080 cells were assessed using a cell-based competitive assay. ^125I-labeled linear NGR peptide (sequence H-Tyr-Gly-Gly-Cys-Asn-Gly-Arg-Cys-OH) was prepared using the Iodogen method and used as the radioligand for CD13. The non-radiolabeled NOTA-G3-NGR peptide (concentrations at a range from 10^−12 to 10^−5 M) was co-incubated with ^125I-NGR in HT-1080 cells. After washing with ice-cold binding buffer three times, the HT-1080 cells were lysed in 200 µL of lysis buffer. The cell-associated radioactivity was then measured using a gamma counter (Beijing PET CO., Ltd., Beijing, China). The IC50 (50% inhibitory concentration) value was obtained by fitting the data using nonlinear regression with GraphPad Prism (GraphPad Software, San Diego, CA, USA). Experiments were performed in triplicate.

The nature of a further data set: physchem. The data set is classed as physicochemical. Particulars: pH 7.4. How it is done:
The octanol–water partition coefficient value was determined by measuring the distribution (logD) of radioactivity in octanol and PBS. Approximately 5 KBq of ^68Ga- NOTA-G3-NGR (2 μL) was added to a vial containing 0.5 mL of octanol and 0.5 mL of PBS (pH = 7.4). The mixture was then vortexed vigorously for 15 min. Subsequently, the mixture was centrifuged at 12,500 rpm for 5 min to ensure the complete separation of layers. Aliquots of the aqueous and octanol layers were collected, measured in a gamma counter (Beijing PET CO., Ltd., Beijing, China). The octanol–water partition coefficient value was then calculated (n = 5).

T1 sequence (P15144 whole entry): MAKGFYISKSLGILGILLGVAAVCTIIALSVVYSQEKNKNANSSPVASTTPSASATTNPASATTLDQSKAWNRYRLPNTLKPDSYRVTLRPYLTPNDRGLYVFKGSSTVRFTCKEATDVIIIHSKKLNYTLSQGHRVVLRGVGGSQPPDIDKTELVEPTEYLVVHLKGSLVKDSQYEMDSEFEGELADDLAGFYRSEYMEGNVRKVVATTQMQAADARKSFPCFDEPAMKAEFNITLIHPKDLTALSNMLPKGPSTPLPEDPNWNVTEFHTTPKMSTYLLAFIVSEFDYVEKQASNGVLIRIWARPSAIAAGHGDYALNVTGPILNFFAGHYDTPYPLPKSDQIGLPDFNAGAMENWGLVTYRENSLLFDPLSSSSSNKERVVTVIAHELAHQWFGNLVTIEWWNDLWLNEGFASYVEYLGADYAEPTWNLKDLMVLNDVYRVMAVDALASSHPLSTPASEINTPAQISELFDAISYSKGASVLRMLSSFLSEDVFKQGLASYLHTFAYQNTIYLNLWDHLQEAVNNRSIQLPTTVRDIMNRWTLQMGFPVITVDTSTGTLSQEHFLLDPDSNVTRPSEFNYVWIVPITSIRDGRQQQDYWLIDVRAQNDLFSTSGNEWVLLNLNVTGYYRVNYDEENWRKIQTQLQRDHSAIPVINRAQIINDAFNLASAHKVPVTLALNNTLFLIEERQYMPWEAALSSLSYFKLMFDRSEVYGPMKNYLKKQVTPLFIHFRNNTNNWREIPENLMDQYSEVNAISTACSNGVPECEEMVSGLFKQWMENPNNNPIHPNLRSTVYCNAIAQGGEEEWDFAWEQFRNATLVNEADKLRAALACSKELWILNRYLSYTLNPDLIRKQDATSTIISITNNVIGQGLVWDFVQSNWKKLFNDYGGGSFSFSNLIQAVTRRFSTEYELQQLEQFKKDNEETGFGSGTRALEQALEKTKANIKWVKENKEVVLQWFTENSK

By IC50 is commonly meant the midpoint of a concentration-inhibition curve. As to `N=C(N)NCCC[C@@H]1NC(=O)CNC(=O)[C@H](CC(N)=O)NC(=O)[C@@H](NC(=O)CNC(=O)CNC(=O)CNC(=S)Nc2ccc(CC3CN(CC(=O)O)CCN(CC(=O)O)CCN3CC(=O)O)cc2)CSSC[C@@H](C(=O)O)NC1=O` (some centres unmarked) [NOTA-G3-NGR], at CD13 receptor, the IC50 worked out at 0.0747 ± 0.00391 µM.

As usually defined, the logD is the decadic logarithm of the distribution of all forms, ionised or not, between an organic phase and buffer at a given pH. Low readings indicate lower lipophilicity, high ones higher lipophilicity. `N=C(N)NCCC[C@@H]1NC(=O)CNC(=O)[C@H](CC(N)=O)NC(=O)[C@@H](NC(=O)CNC(=O)CNC(=O)CNC(=S)Nc2ccc(CC3CN(CC(=O)O)CCN(CC(=O)O)CCN3CC(=O)O)cc2)CSSC[C@@H](C(=O)O)NC1=O` (some centres unmarked) [^68Ga-NOTA-G3-NGR, metal not drawn]: the logD in the data set “physchem” was -2.25 ± 0.17.
